According to patent USRE38117E1, “Trioxane dimer compound having antiproliferative and antitumor activities” (Hauser, Inc., priority 1995, dated 2003):

Assays:
Assay type in all cases: cell-based
HL-60(TB) = experiment: NCI 60 cell line screen (SRB), Leukemia; conditions: HL-60(TB) (Leukemia)
MOLT-4 = experiment: NCI 60 cell line screen (SRB), Leukemia
RPMI-8226 = experiment: NCI 60 cell line screen (SRB), Leukemia; conditions: RPMI-8226 (Leukemia)
SR = experiment: NCI 60 cell line screen (SRB), Leukemia
EKVX = experiment: NCI 60 cell line screen (SRB), Non-Small Cell Lung Cancer
NCI-H23 = experiment: as above
NCI-H522 = experiment: as above
COLO 205 = experiment: NCI 60 cell line screen (SRB), Colon Cancer; conditions: COLO 205 (Colon Cancer)
HCT-116 = experiment: NCI 60 cell line screen (SRB), Colon Cancer; conditions: HCT-116 (Colon Cancer)
KM12 = experiment: NCI 60 cell line screen (SRB), Colon Cancer
SF-295 = experiment: NCI 60 cell line screen (SRB), CNS Cancer; conditions: SF-295 (CNS Cancer)
SNB-75 = experiment: NCI 60 cell line screen (SRB), CNS Cancer; conditions: SNB-75 (CNS Cancer)
U251 = experiment: NCI 60 cell line screen (SRB), CNS Cancer
LOX IMVI = experiment: NCI 60 cell line screen (SRB), Melanoma
UACC-257 = experiment: NCI 60 cell line screen (SRB), Melanoma; conditions: UACC-257 (Melanoma)
OVCAR-5 = experiment: NCI 60 cell line screen (SRB), Ovarian Cancer; conditions: OVCAR-5 (Ovarian Cancer)
SK-OV-3 = experiment: NCI 60 cell line screen (SRB), Ovarian Cancer; conditions: SK-OV-3 (Ovarian Cancer)
ACHN = experiment: NCI 60 cell line screen (SRB), Renal Cancer
RXF 393 = experiment: NCI 60 cell line screen (SRB), Renal Cancer; conditions: RXF 393 (Renal Cancer)
SN12C = experiment: NCI 60 cell line screen (SRB), Renal Cancer
TK-10 = experiment: NCI 60 cell line screen (SRB), Renal Cancer; conditions: TK-10 (Renal Cancer)
UO-31 = experiment: NCI 60 cell line screen (SRB), Renal Cancer; conditions: UO-31 (Renal Cancer)
PC-3 = experiment: NCI 60 cell line screen (SRB), Prostate Cancer; conditions: PC-3 (Prostate Cancer)
MDA-MB231/ATCC = experiment: NCI 60 cell line screen (SRB), Breast Cancer
MDA-MB-435 = experiment: NCI 60 cell line screen (SRB), Breast Cancer; conditions: MDA-MB-435 (Breast Cancer)
BT-549 = experiment: NCI 60 cell line screen (SRB), Breast Cancer; conditions: BT-549 (Breast Cancer)
T-47D = experiment: NCI 60 cell line screen (SRB), Breast Cancer; conditions: T-47D (Breast Cancer)
[1] = tested on: murine keratinocyte cell line PE; experiment: Growth inhibition of PE cells (MTT assay); conditions: murine keratinocytes, FIGS. 1-9
Procedure: To determine the inhibitory effect of the trioxane dimers of the present invention on cell proliferation, screening assays were performed on a murine keratinocyte cell line PE. […] PE cell culture medium consisted of Eagle's minimal essential medium without calcium chloride (Whittaker Bioproducts, Walkersville, Ma.) supplemented with 8% chelexed fetal calf serum and 1% antibiotic-antimycotic (Gibco BRL) and the addition of CaCl2 to 0.05 mM Ca^++. […] (St. Louis, Mo.), and TPA was supplied by L. C. Services (Woburn, Ma.). L-[^14C]ornithine ([…]) was from Amersham/Searle Corp. (Arlington Heights, Ill.). Chemical solvents used in all assays of biological activity were of the highest grade commercially available. Growth Inhibition. […] A mitochondrial dehydrogenase reduces MTT to a blue formazan product with an absorbance maximum of 505 nm in DMSO; the number of viable cells can thus be determined spectrophotometrically. PE cells were seeded at a density of 5,000 cells/well in 50 μL of medium into 96-well microtiter plates. […] The plates were fed once at 48 h, with the readdition of the vitamin D3 analogs at this time. […] After 4 h, the MTT was removed and DMSO added to dissolve the blue formazan dye. Using a microtiter plate reader, the […] was then determined and cell number calculated from blank-subtracted absorbance values.

[2] = MOLT-4 (Leukemia), listed as Metaphtalate Dimer
[3] = MOLT-4 (Leukemia), listed as metaphthalate dimer

Compound COC1OC2(C)CCC3CCCC(CCOC(=O)c4cccc(C(=O)OCCC5CCCC6CCC7(C)OOC56C(OC)O7)c4)C31OO2 (stereo not drawn) [Compound 10, Trioxane Bis-ester Dimer] has a Log10GI50 (HL-60(TB)) of −7.21 M, a Log10LC50 (HL-60(TB)) of over −4.30 M and a Log10TGI (HL-60(TB)) of −6.56 M. The Log10GI50 (MOLT-4; MOLT-4 (Leukemia)) was −7.68 M, the Log10LC50 (MOLT-4; [2]) was over −4.30 M and the Log10TGI (MOLT-4; [2]) was −6.53 M. The Log10LC50 (MOLT-4; [3]) was −4.05 M, the Log10TGI (MOLT-4; [3]) was −5.80 M and the “drug concentration necessary to achieve primary growth inhibition (percentage growth +50)” value (MOLT-4; MOLT-4, read from dose response curves FIGS. 10a-10e) was “less than 10^−7 molar”. For the same compound, the Log10GI50 (RPMI-8226) was −6.97 M, the Log10LC50 (RPMI-8226) was over −4.30 M and the Log10TGI (RPMI-8226) was −5.73 M. It also gave a Log10GI50 (SR) of under −8.30 M, a Log10LC50 (SR) of over −4.30 M and a Log10TGI (SR) of −7.49 M. For the same compound, the Log10GI50 (EKVX) was −5.31 M, the Log10LC50 (EKVX) was over −4.30 M and the Log10TGI (EKVX) was over −4.30 M. The Log10GI50 (NCI-H23) was −6.29 M, the Log10LC50 (NCI-H23) was over −4.30 M and the Log10TGI (NCI-H23) was over −4.30 M. It also gave a Log10GI50 (NCI-H522) of −6.13 M, a Log10LC50 (NCI-H522) of over −4.30 M and a Log10TGI (NCI-H522) of over −4.30 M. The Log10GI50 (COLO 205) was −6.45 M, the Log10LC50 (COLO 205) was −4.48 M and the Log10TGI (COLO 205) was −5.18 M. It also gave a Log10GI50 (HCT-116) of −6.43 M, a Log10LC50 (HCT-116) of over −4.30 M and a Log10TGI (HCT-116) of over −4.30 M. The Log10GI50 (KM12) was −5.97 M, the Log10LC50 (KM12) was over −4.30 M and the Log10TGI (KM12) was over −4.30 M. It also gave a Log10GI50 (SF-295) of −5.01 M, a Log10LC50 (SF-295) of over −4.30 M and a Log10TGI (SF-295) of over −4.30 M. It also gave a Log10GI50 (SNB-75) of −5.56 M, a Log10LC50 (SNB-75) of over −4.30 M and a Log10TGI (SNB-75) of over −4.30 M. The Log10GI50 (U251) was −6.09 M, the Log10LC50 (U251) was over −4.30 M and the Log10TGI (U251) was over −4.30 M. The Log10GI50 (LOX IMVI) was −6.27 M, the Log10LC50 (LOX IMVI) was over −4.30 M and the Log10TGI (LOX IMVI) was over −4.30 M. The Log10GI50 (UACC-257) was −5.03 M, the Log10LC50 (UACC-257) was over −4.30 M and the Log10TGI (UACC-257) was over −4.30 M. The Log10GI50 (OVCAR-5) was −5.68 M, the Log10LC50 (OVCAR-5) was over −4.30 M and the Log10TGI (OVCAR-5) was over −4.30 M. It also gave a Log10LC50 (SK-OV-3) of over −4.30 M, a Log10TGI (SK-OV-3) of over −4.30 M and a Log10GI50 (ACHN) of −5.85 M. The Log10LC50 (ACHN) was over −4.30 M, the Log10TGI (ACHN) was over −4.30 M and the Log10GI50 (RXF 393) was over −4.30 M. The Log10LC50 (RXF 393) was over −4.30 M, the Log10TGI (RXF 393) was over −4.30 M and the Log10GI50 (SN12C) was −5.73 M. The Log10LC50 (SN12C) was over −4.30 M, the Log10TGI (SN12C) was over −4.30 M and the Log10GI50 (TK-10) was −5.39 M. The Log10LC50 (TK-10) was over −4.30 M, the Log10TGI (TK-10) was over −4.30 M and the Log10GI50 (UO-31) was −5.96 M. It also gave a Log10LC50 (UO-31) of over −4.30 M, a Log10TGI (UO-31) of over −4.30 M and a Log10GI50 (PC-3) of −7.09 M. It also gave a Log10LC50 (PC-3) of over −4.30 M, a Log10TGI (PC-3) of over −4.30 M and a Log10GI50 (MDA-MB231/ATCC) of −5.27 M. The Log10LC50 (MDA-MB231/ATCC) was over −4.30 M, the Log10TGI (MDA-MB231/ATCC) was over −4.30 M and the Log10GI50 (MDA-MB-435) was −5.93 M. The Log10LC50 (MDA-MB-435) was over −4.30 M, the Log10TGI (MDA-MB-435) was over −4.30 M and the Log10GI50 (BT-549) was −5.47 M. It also gave a Log10LC50 (BT-549) of over −4.30 M, a Log10TGI (BT-549) of over −4.30 M and a Log10GI50 (T-47D) of −6.76 M. The Log10LC50 (T-47D) was over −4.30 M, the Log10TGI (T-47D) was over −4.30 M and the antiproliferative activity [1] was “high antiproliferative activity”.
